Experimental data from the NIST ThermoML archive (doi:10.1021/je049572f).
Values joined by “and” are separate entries in the source; they are usually repeats but may differ in a detail not shown here. Equal values may be shown once. ± gives the expanded uncertainty stated by the source.

Key:
[1] = 101.33 kPa, Liquid
[2] = xn = mol fraction of the nth substance listed; details: 101.33 kPa, Liquid

CN1CCCC1=O [N-methylpyrrolidone]
[1]
Details	mass density [kg/m3]	viscosity [mPa·s]
303.15 K	1023.47 ± 3.2	1.554 ± 0.053
313.15 K	1014.55 ± 3.1	1.332 ± 0.046
323.15 K	1005.66 ± 3	1.16 ± 0.04
333.15 K	996.71 ± 2.9	1.022 ± 0.036
343.15 K	987.75 ± 3	0.908 ± 0.032
353.15 K	978.76 ± 3	0.813 ± 0.029

CN1CCCC1=O [N-methylpyrrolidone] + CCc1ccccc1
[2], x2 = 0
Details	mass density [kg/m3]	viscosity [mPa·s]
303.15 K	1023.47 ± 3.2	1.554 ± 0.053
313.15 K	1014.55 ± 3.1	1.332 ± 0.046
323.15 K	1005.66 ± 3	1.16 ± 0.04
333.15 K	996.71 ± 2.9	1.022 ± 0.036
343.15 K	987.75 ± 3	0.908 ± 0.032
353.15 K	978.76 ± 3	0.813 ± 0.029

CCc1ccccc1 [ethylbenzene]
[1]
Details	mass density	viscosity [mPa·s]
303.15 K	859.95 ± 3.6 kg/m3	0.598 ± 0.016
313.15 K	851.14 ± 3.7 kg/m3	0.537 ± 0.015
323.15 K	842.3 ± 3.8 kg/m3 and 842.27 ± 3.8 kg/m3	0.483 ± 0.014
333.15 K	833.34 ± 4 kg/m3	0.437 ± 0.013
343.15 K	824.26 ± 4.1 kg/m3	0.397 ± 0.012
353.15 K	815.18 ± 4.3 kg/m3	0.366 ± 0.012

CCc1ccccc1 [ethylbenzene] + O=S1(=O)CCCC1
[2], x1 = 1
Details	mass density [kg/m3]	viscosity [mPa·s]
303.15 K	859.95 ± 3.6	0.598 ± 0.016
313.15 K	851.14 ± 3.7	0.537 ± 0.015
323.15 K	842.27 ± 3.8	0.483 ± 0.014
333.15 K	833.34 ± 4	0.437 ± 0.013
343.15 K	824.26 ± 4.1	0.397 ± 0.012
353.15 K	815.18 ± 4.3	0.366 ± 0.012

CCCCCCCC [octane]
[1]
Details	mass density [kg/m3]	viscosity [mPa·s]
293.15 K	703.88 ± 3	0.534 ± 0.015
298.15 K	699.83 ± 3.1	0.501 ± 0.014
303.15 K	695.79 ± 3.1	0.472 ± 0.014
313.15 K	687.59 ± 3.2	0.422 ± 0.013
323.15 K	679.34 ± 3.2	0.38 ± 0.012
333.15 K	670.98 ± 3.3	0.343 ± 0.011
343.15 K	662.59 ± 3.4	0.314 ± 0.011
353.15 K	654.05 ± 3.5	0.287 ± 0.01
363.15 K	645.68 ± 3.5	0.261 ± 0.01

CCCCCCCC [octane] + C=Cc1ccccc1
[2], x2 = 0
Details	mass density [kg/m3]	viscosity [mPa·s]
293.15 K	703.88 ± 3	0.534 ± 0.015
298.15 K	699.83 ± 3.1	0.501 ± 0.014
303.15 K	695.79 ± 3.1	0.472 ± 0.014
313.15 K	687.59 ± 3.2	0.422 ± 0.013
323.15 K	679.34 ± 3.2	0.38 ± 0.012
333.15 K	670.98 ± 3.3	0.343 ± 0.011
343.15 K	662.59 ± 3.4	0.314 ± 0.011
353.15 K	654.05 ± 3.5	0.287 ± 0.01
363.15 K	645.68 ± 3.5	0.261 ± 0.01

C=Cc1ccccc1 [styrene]
[1]
Details	mass density [kg/m3]	viscosity [mPa·s]
293.15 K	906.29 ± 1.4	0.749 ± 0.019
298.15 K	901.86 ± 1.4	0.699 ± 0.018
303.15 K	897.45 ± 1.5	0.654 ± 0.017
313.15 K	888.53 ± 1.6	0.577 ± 0.016
323.15 K	879.62 ± 1.6	0.513 ± 0.014
333.15 K	870.64 ± 1.7	0.462 ± 0.013
343.15 K	861.72 ± 1.8	0.419 ± 0.013
353.15 K	852.68 ± 1.9	0.381 ± 0.012
363.15 K	843.99 ± 1.9	0.349 ± 0.011

O=S1(=O)CCCC1 [sulfolane]
[1]
Details	mass density [kg/m3]	viscosity [mPa·s]
303.15 K	1260.8 ± 6.4	10.07 ± 0.32
313.15 K	1251.9 ± 6.3	7.808 ± 0.25
323.15 K	1243.36 ± 6.2	6.194 ± 0.2
333.15 K	1234.62 ± 6	5.009 ± 0.17
343.15 K	1225.92 ± 5.9	4.126 ± 0.14
353.15 K	1216.8 ± 5.8	3.44 ± 0.12
